The text below walks through data of US20230117470A1, “SUBSTITUTED PYRAZOLE COMPOUNDS AS TOLL RECEPTOR INHIBITORS” (BRISTOL-MYERS SQUIBB COMPANY, priority 2019, published 2023).

Assay type in all cases: cell-based
One assay has as its target T1, human TLR9 (Homo sapiens, UniProt Q9NR96).
T1 construct: host or cells: HEK-Blue cells
T1 sequence (Q9NR96 26-1032): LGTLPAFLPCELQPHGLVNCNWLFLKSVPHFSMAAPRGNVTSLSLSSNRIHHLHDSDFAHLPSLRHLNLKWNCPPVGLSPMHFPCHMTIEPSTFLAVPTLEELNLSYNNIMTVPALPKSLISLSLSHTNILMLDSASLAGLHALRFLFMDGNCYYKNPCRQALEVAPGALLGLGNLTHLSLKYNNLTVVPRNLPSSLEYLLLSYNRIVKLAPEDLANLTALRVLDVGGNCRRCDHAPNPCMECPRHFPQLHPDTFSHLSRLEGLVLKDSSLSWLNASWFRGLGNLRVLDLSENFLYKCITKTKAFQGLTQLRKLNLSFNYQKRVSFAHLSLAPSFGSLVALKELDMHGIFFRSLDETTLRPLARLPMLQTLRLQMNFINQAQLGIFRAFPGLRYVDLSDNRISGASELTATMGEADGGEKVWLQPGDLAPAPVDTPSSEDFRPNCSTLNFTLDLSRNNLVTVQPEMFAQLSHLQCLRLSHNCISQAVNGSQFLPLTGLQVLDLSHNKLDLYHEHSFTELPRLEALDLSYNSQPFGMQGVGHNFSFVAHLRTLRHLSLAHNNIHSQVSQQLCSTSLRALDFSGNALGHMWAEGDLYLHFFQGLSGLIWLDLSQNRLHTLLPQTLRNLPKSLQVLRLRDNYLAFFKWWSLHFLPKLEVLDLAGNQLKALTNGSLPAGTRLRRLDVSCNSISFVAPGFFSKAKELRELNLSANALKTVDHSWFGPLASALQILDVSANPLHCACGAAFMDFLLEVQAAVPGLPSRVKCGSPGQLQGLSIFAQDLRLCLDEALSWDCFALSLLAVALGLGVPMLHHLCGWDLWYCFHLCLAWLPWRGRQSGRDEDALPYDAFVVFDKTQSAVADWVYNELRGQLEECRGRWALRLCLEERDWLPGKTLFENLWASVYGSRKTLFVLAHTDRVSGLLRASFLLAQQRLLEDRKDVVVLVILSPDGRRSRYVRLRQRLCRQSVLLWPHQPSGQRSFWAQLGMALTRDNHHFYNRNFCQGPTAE
Kind of assay: TLR9 inhibition reporter assay (HEK-Blue cells, SEAP reporter, ODN2006 stimulation). To be noted: HEK-Blue cells overexpressing human TLR9, SEAP reporter, ODN2006 5 nM. As for the experimental part:
(§1) TLR7/8/9 Inhibition Reporter Assays
(§2) HEK-Blue™-cells (Invivogen) overexpressing human TLR7, TLR8 or TLR9 receptors were used for screening inhibitors of these receptors using an inducible SEAP (secreted embryonic alkaline phosphatase) reporter gene under the control of the IFN-β minimal promoter fused to five NF-κB and AP-1-binding sites. Briefly, cells are seeded into Greiner 384 well plates (15000 cells per well for TLR7, 20,000 for TLR8 and 25,000 for TLR9) and then treated with test compounds in DMSO to yield a final dose response concentration range of 0.05 nM-50 μM. After a 30 minute compound pre-treatment at room temperature, the cells are then stimulated with a TLR7 ligand (gardiquimod at a final concentration of 7.5 μM), TLR8 ligand (R848 at a final concentration of 15.9 μM) or TLR9 ligand (ODN2006 at a final concentration of 5 nM) to activate NF-κB and AP-1 which induce the production of SLA After a 22 hour incubation at 37° C., […], SEAP levels are determined with the addition of HEK-Blue™ Detection reagent (Invivogen), a cell culture medium that allows for detection of SLAP, according to manufacturer's specifications. The percent inhibition is determined as the % reduction in the HEK-Blue signal present in wells treated with agonist plus DMSO alone compared to wells treated with a known inhibitor.
Background: Reporter assays use an easily measured gene product as a stand-in for the process of interest.

The target of another assay is T2, human TLR7 (Homo sapiens, UniProt Q9NYK1).
T2 construct: host or cells: HEK-Blue cells
T2 sequence (Q9NYK1 27-1049): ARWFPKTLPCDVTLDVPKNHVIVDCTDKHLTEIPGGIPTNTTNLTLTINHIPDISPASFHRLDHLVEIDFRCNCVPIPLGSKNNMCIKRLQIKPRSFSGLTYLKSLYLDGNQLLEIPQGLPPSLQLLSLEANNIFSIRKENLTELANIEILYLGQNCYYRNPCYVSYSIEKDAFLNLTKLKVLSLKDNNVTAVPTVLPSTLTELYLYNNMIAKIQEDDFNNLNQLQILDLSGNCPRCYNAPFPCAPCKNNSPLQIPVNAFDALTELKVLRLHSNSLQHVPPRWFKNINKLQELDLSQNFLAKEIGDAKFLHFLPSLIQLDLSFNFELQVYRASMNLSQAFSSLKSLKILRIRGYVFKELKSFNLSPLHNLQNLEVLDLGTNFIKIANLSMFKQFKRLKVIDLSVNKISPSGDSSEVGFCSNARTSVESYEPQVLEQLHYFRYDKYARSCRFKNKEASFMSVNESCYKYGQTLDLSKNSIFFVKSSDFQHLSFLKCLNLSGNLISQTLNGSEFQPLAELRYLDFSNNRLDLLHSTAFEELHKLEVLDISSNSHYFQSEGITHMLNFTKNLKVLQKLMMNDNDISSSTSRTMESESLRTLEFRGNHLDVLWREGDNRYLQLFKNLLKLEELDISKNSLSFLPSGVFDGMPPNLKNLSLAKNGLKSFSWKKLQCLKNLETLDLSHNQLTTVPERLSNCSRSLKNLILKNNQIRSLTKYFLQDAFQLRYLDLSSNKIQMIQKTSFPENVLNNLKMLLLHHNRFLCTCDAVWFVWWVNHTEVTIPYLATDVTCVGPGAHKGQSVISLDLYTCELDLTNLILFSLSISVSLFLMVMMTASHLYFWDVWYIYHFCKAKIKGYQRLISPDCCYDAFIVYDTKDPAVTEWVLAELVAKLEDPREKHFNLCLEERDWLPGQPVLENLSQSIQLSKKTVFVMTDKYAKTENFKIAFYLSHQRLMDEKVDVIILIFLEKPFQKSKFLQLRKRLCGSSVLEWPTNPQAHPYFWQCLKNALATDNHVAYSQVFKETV
Description: TLR7 inhibition reporter assay (HEK-Blue cells, SEAP reporter, gardiquimod stimulation). As to conditions: HEK-Blue cells overexpressing human TLR7, SEAP reporter, gardiquimod 7.5 μM. As for the experimental part: as §1, §2

Another assay addresses T3, human TLR8 (Homo sapiens, UniProt Q9NR97).
T3 construct: host or cells: HEK-Blue cells
T3 sequence (Q9NR97 27-1041): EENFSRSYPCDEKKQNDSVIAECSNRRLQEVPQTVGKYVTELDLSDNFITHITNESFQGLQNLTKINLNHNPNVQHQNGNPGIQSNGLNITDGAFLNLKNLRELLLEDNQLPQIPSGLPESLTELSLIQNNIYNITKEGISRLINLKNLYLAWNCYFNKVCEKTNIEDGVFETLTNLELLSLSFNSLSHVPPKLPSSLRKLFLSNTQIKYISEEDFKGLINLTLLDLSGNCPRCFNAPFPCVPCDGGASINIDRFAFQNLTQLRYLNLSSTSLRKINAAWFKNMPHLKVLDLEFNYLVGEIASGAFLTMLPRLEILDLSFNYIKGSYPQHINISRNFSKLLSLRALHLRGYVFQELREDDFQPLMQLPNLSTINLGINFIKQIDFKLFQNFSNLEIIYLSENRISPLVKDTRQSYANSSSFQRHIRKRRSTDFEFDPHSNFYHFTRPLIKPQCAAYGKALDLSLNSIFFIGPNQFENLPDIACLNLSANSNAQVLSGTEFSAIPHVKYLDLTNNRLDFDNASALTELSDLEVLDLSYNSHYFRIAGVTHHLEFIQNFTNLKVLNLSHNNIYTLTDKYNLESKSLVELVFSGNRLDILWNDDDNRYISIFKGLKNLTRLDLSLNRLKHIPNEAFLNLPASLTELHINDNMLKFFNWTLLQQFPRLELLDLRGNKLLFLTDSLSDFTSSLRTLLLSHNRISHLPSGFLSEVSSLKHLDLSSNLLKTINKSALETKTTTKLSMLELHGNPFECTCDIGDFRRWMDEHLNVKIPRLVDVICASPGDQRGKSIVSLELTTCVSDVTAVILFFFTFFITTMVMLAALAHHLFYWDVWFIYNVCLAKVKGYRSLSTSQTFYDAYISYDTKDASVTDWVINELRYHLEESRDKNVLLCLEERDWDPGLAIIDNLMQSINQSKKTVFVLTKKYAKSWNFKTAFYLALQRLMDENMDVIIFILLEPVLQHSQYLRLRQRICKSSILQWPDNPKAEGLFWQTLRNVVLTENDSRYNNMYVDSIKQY
Kind of assay: TLR8 inhibition reporter assay (HEK-Blue cells, SEAP reporter, R848 stimulation). To be noted: HEK-Blue cells overexpressing human TLR8, SEAP reporter, R848 15.9 μM. The procedure:
as §1, §2

With `COc1cc(-c2[nH]nc(C(=O)N3CCCN(C)CC3)c2C(C)C)cn2ncnc12` [Example 10], the IC50 (usually the concentration that gives 50% inhibition) against human TLR9 is 1330 nM; on human TLR7, 1.37 nM; at human TLR8 it was 1.9 nM.

As to `COc1cc(-c2[nH]nc(C(=O)NC3CCN(C)CC3)c2C(C)C)cn2ncnc12` [Example 11], the 50% inhibitory concentration (IC50) was found to be 18500 nM at human TLR9, 3.78 nM at human TLR7 and 9.31 nM at human TLR8.

For the compound `COc1cc(-c2[nH]nc(C(=O)NC3CCN(C(C)C)CC3)c2C(C)C)cn2ncnc12` [Example 12], the IC50 on human TLR9 was determined as 2150 nM; on human TLR7, 1.59 nM; on human TLR8, 0.86 nM.

For `Cc1cc(-c2[nH]nc(C(=O)N3CCC(N(C)C)CC3)c2C(C)C)cn2ncnc12` [Example 13], the IC50 at human TLR9 is 3330 nM; on human TLR7, 5.04 nM; against human TLR8, 2.03 nM.

With `Cc1cc(-c2[nH]nc(C(=O)N3CCN(c4ccncc4)CC3)c2C(C)C)cn2ncnc12` [Example 14], the IC50 at human TLR9 came to 3840 nM; against human TLR7, 1.92 nM; at human TLR8 it was 0.94 nM.

With `Cc1cc(-c2[nH]nc(C(=O)N3CCC(C(N)=O)CC3)c2C(C)C)cn2ncnc12` [Example 15], the results for the IC50 at human TLR9, on human TLR7 and against human TLR8 were 7810 nM, 4.15 nM and 3.14 nM, respectively.

With `Cc1cc(-c2[nH]nc(C(=O)N(C)CCC#N)c2C(C)C)cn2ncnc12` [Example 16], the IC50 worked out at 43500 nM against human TLR9, 3.09 nM at human TLR7 and 2.74 nM against human TLR8.

For the compound `Cc1cc(-c2[nH]nc(C(=O)N(C)Cc3cccnc3)c2C(C)C)cn2ncnc12` [Example 17], the IC50 against human TLR9 was found to be 3430 nM; against human TLR7 it was 8.08 nM; on human TLR8, 8.27 nM.

On to `Cc1cc(-c2[nH]nc(C(=O)N3CC[C@@H](N(C)C)C3)c2C(C)C)cn2ncnc12` [Example 18], for which the IC50 against human TLR9 came out at 3740 nM; against human TLR7, 5.69 nM; at human TLR8 it was 2.57 nM.

For the compound `Cc1cc(-c2[nH]nc(C(=O)N3CCN(CCC#N)CC3)c2C(C)C)cn2ncnc12` [Example 19], the IC50 on human TLR9 was 5940 nM; at human TLR7, 1.4 nM; against human TLR8 it was 12 nM.

On to `CCN(CCC#N)C(=O)c1n[nH]c(-c2cc(C)c3ncnn3c2)c1C(C)C` [Example 20], for which the IC50 came to 16100 nM on human TLR9, 3.69 nM against human TLR7 and 8.06 nM at human TLR8.

With `Cc1cc(-c2[nH]nc(C(=O)N3CC(N(C)C)C3)c2C(C)C)cn2ncnc12` [Example 21], the values for the half-maximal inhibitory concentration (IC50) on human TLR9, at human TLR7 and on human TLR8 were more than 50000 nM, 6.89 nM and 39 nM, respectively.

Take `Cc1cc(-c2[nH]nc(C(=O)N3CC[C@H](N(C)C)C3)c2C(C)C)cn2ncnc12` [Example 22]: the IC50 was found to be 4850 nM at human TLR9, 1.23 nM against human TLR7 and 0.9 nM at human TLR8.

On to `Cc1cc(-c2[nH]nc(C(=O)N3CCCN(C)CC3)c2C(C)C)cn2ncnc12` [Example 23], for which the half-inhibitory concentration (IC50) was determined as 4770 nM against human TLR9, 1.27 nM against human TLR7 and 1.01 nM at human TLR8.

Turning to `Cc1cc(-c2[nH]nc(C(=O)N(C)CCCN(C)C)c2C(C)C)cn2ncnc12` [Example 24], the IC50 is 793 nM on human TLR9, 43.4 nM on human TLR7 and 12.5 nM on human TLR8.

As for `Cc1cc(-c2[nH]nc(C(=O)N(C)C3CCN(C)C3)c2C(C)C)cn2ncnc12` (stereo not drawn) [Example 25], the results for the IC50 on human TLR9, against human TLR7 and at human TLR8 were 447 nM, 25.6 nM and 10.3 nM, respectively.

Consider `COc1cc(-c2[nH]nc(C(=O)NCC(C)(C)N3CCOCC3)c2C(C)C)cn2ncnc12` [Example 26], for which the concentration for half-maximal inhibition (IC50) on human TLR9 was found to be 7210 nM; against human TLR7, 442 nM; against human TLR8, 413 nM.

For the compound `CNC(=O)c1n[nH]c(-c2cc(C)c3ncnn3c2)c1C(C)C` [Example 27], the IC50 at human TLR9 is 388 nM; at human TLR7 it was 29.7 nM; against human TLR8, 2.87 nM.

Consider `Cc1cc(-c2[nH]nc(C(=O)NC3CCOCC3)c2C(C)C)cn2ncnc12` [Example 28], for which the results for the IC50 on human TLR9, on human TLR7 and against human TLR8 were 645 nM, 39 nM and 265 nM, respectively.

`Cc1cc(-c2[nH]nc(C(N)=O)c2C(C)C)cn2ncnc12` [Example 29]: the IC50 against human TLR9 stood at 216 nM; against human TLR7, 18.4 nM; at human TLR8 it was 1.91 nM.

`Cc1cc(-c2[nH]nc(C(=O)N3CCOCC3)c2C(C)C)cn2ncnc12` [Example 30]: the half-maximal inhibitory concentration (IC50) against human TLR9 came out at 14800 nM; on human TLR7, 4.37 nM; at human TLR8, 2.07 nM.
